ChEMBL document CHEMBL1150039, “Dual inhibition of neutral endopeptidase and angiotensin-converting enzyme by N-phosphonomethyl and N-carboxyalkyl dipeptides” (Bioorg Med Chem Lett, 1994)

Tests used:
[1] = target: Angiotensin-converting enzyme (Homo sapiens, UniProt P12821); test: In vitro inhibitory concentration against angiotensin-converting enzyme; type: protein assay
[2] = target: Neprilysin (Homo sapiens, UniProt P08473); test: In vitro inhibitory concentration against neutral endopeptidase
Sequence of Neprilysin (P08473 whole entry): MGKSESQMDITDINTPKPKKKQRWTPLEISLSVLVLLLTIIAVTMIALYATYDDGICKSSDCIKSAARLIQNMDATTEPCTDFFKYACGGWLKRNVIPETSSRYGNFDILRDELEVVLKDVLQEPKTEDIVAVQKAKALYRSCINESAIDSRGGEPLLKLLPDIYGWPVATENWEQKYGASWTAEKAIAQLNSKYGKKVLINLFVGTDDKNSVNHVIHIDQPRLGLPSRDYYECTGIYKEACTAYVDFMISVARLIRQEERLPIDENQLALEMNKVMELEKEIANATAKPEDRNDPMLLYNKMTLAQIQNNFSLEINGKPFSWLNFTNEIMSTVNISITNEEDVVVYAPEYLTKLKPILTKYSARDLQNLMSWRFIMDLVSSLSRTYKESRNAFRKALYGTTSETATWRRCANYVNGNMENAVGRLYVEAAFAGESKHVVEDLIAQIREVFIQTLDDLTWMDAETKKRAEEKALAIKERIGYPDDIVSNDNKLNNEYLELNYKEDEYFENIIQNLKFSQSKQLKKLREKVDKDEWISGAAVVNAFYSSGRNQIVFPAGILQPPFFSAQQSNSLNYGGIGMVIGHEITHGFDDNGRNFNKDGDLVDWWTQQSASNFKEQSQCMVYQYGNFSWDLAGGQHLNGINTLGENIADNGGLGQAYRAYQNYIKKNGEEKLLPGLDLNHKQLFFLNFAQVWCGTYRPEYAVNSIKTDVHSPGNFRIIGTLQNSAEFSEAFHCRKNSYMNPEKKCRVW

Sequence of Angiotensin-converting enzyme (P12821 whole entry): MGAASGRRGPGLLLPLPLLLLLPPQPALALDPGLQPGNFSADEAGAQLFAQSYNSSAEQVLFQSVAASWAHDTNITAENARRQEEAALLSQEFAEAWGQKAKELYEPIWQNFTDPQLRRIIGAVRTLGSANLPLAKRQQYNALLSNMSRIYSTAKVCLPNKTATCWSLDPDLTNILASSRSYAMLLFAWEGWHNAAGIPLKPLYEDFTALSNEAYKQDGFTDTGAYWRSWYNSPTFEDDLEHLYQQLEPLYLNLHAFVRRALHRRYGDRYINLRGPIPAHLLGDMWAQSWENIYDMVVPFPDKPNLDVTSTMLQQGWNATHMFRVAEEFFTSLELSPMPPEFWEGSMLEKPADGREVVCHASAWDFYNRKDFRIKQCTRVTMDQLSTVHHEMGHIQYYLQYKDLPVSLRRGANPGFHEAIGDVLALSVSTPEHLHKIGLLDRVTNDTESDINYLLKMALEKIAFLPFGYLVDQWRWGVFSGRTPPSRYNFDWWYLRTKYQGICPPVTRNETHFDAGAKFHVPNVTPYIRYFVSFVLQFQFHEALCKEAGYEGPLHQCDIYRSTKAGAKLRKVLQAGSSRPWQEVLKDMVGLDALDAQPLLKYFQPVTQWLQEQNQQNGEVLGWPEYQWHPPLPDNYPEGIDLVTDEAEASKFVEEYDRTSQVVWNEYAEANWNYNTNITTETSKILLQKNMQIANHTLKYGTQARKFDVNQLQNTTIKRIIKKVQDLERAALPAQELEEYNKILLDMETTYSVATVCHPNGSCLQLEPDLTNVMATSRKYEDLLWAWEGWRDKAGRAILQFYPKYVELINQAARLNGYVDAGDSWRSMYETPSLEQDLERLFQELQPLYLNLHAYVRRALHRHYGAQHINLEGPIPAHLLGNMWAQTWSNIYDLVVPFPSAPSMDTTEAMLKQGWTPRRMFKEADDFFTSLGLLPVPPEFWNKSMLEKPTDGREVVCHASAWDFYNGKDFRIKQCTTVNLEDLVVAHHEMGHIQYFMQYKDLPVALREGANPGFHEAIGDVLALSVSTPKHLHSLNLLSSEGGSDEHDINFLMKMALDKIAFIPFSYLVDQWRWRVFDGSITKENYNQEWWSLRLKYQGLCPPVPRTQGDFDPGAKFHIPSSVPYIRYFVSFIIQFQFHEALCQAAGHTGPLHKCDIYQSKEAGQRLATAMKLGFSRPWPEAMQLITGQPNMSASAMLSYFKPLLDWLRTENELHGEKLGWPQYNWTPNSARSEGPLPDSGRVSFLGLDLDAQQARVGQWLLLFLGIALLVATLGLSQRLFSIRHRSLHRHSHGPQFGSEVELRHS

Row | IC50 [1] | IC50 [2] | Structure (SMILES)
1 | 731 nM | 37 nM | CCCC[C@H](NCP(=O)(O)O)C(=O)N[C@@H](Cc1ccc(-c2ccccc2)cc1)C(=O)O
2 | > 1000 nM | > 1000 nM | O=C(O)[C@H](Cc1ccc(-c2ccccc2)cc1)NC(=O)[C@H](Cc1cnc[nH]1)NCP(=O)(O)O
3 | 665 nM | > 1000 nM | C[C@H](O)[C@H](NCP(=O)(O)O)C(=O)N[C@@H](Cc1ccc(-c2ccccc2)cc1)C(=O)O
4 | 92 nM | 9 nM | CC(C)Oc1ccc(C[C@H](NC(=O)[C@@H](NCP(=O)(O)O)C(C)C)C(=O)O)cc1
5 | 147 nM | 48 nM | O=C(O)[C@H](Cc1ccc(-c2ccccc2)cc1)NC(=O)[C@H](Cc1ccc2c(c1)OCO2)NCP(=O)(O)O
6 | 65 nM | 200 nM | CC[C@H](C)C(NCC(=O)O)C(=O)N[C@@H](Cc1ccc(-c2ccccc2)cc1)C(=O)O (some centres undefined)
7 | > 1000 nM | > 1000 nM | O=C(O)[C@H](Cc1ccc(-c2ccccc2)cc1)NC(=O)[C@H](Cc1ccccc1O)NCP(=O)(O)O
8 | > 1000 nM | 12 nM | CC(C)[C@H](NCP(=O)(O)O)C(=O)N[C@@H](Cc1ccc(-c2ccccc2)cc1)C(=O)N1C[C@H](O)C[C@H]1C(=O)O
9 | 473 nM | 338 nM | O=C(O)[C@H](Cc1ccc(-c2ccccc2)cc1)NC(=O)[C@H](Cc1ccc(Cl)cc1)NCP(=O)(O)O
10 | 138 nM | 47 nM | C[C@H](c1ccccc1)[C@H](NCP(=O)(O)O)C(=O)N[C@@H](Cc1ccc(-c2ccccc2)cc1)C(=O)O
11 | > 1000 nM | > 1000 nM | O=C(O)[C@H](Cc1ccc(-c2ccccc2)cc1)NC(=O)C1(NCP(=O)(O)O)CCCC1
12 | > 1000 nM | 4 nM | CC(C)[C@H](NCP(=O)(O)O)C(=O)N[C@@H](Cc1ccc(-c2ccccc2)cc1)C(=O)N[C@@H](Cc1ccc(O)cc1)C(=O)O
13 | 385 nM | 73 nM | O=C(O)[C@H](Cc1ccc(-c2ccccc2)cc1)NC(=O)[C@H](Cc1cccs1)NCP(=O)(O)O
14 | 656 nM | > 1000 nM | C[C@H](OCc1ccccc1)[C@H](NCP(=O)(O)O)C(=O)N[C@@H](Cc1ccc(-c2ccccc2)cc1)C(=O)O
15 | 414 nM | 20 nM | O=C(O)[C@H](Cc1ccc(-c2ccccc2)cc1)NC(=O)[C@H](Cc1ccc(-c2ccccc2)cc1)NCP(=O)(O)O
16 | > 1000 nM | 226 nM | O=C(O)[C@H](Cc1ccc(-c2ccccc2)cc1)NC(=O)[C@H](Cc1ccc(O)cc1)NCP(=O)(O)O

Row | IC50 [1] | IC50 [2] | Structure (SMILES)
17 | 25 nM | 3 nM | CC(C)[C@H](NCP(=O)(O)O)C(=O)N[C@@H](Cc1ccc(-c2ccccc2)cc1)C(=O)O
18 | 50 nM | 2 nM | CC[C@@H](C)[C@H](NCP(=O)(O)O)C(=O)N[C@@H](Cc1ccc(-c2ccccc2)cc1)C(=O)O
19 | 660 nM | 1000 nM | C[C@H](NCP(=O)(O)O)C(=O)N[C@@H](Cc1ccc(-c2ccccc2)cc1)C(=O)O
20 | 498 nM | 96 nM | Cc1ccccc1C[C@H](NCP(=O)(O)O)C(=O)N[C@@H](Cc1ccc(-c2ccccc2)cc1)C(=O)O
21 | 44 nM | 171 nM | C[C@H](N[C@@H](Cc1ccccc1)C(=O)N[C@@H](Cc1ccc(-c2ccccc2)cc1)C(=O)O)P(=O)(O)O
22 | 53 nM | 282 nM | O=C(O)[C@H](Cc1ccc(-c2ccccc2)cc1)NC(=O)[C@H](Cc1ccc2ccccc2c1)NCP(=O)(O)O
23 | 23 nM | 735 nM | CC(C)[C@H](N[C@@H](C)C(=O)O)C(=O)N[C@@H](Cc1ccc(-c2ccccc2)cc1)C(=O)O
24 | > 1000 nM | 34 nM | O=C(O)[C@H](Cc1ccc(-c2ccccc2)cc1)NC(=O)[C@@H](NCP(=O)(O)O)C1CCCCC1
25 | > 1000 nM | 356 nM | CC(C)C[C@H](NCP(=O)(O)O)C(=O)N[C@@H](Cc1ccc(-c2ccccc2)cc1)C(=O)O
26 | 240 nM | 9 nM | CC(C)[C@H](NCP(=O)(O)O)C(=O)N[C@@H](Cc1c[nH]c2ccccc12)C(=O)O
27 | 122 nM | 35 nM | CC(C)[C@H](NCP(=O)(O)O)C(=O)N[C@@H](Cc1ccc(C2CCCCC2)cc1)C(=O)O
28 | 117 nM | 35 nM | O=C(O)[C@H](Cc1ccc(-c2ccccc2)cc1)NC(=O)[C@H](Cc1ccccc1)NCP(=O)(O)O
29 | > 1000 nM | > 1000 nM | CC(C)(C)[C@H](NCP(=O)(O)O)C(=O)N[C@@H](Cc1ccc(-c2ccccc2)cc1)C(=O)O
30 | 100 nM | 26 nM | CC(C)[C@H](NCP(=O)(O)O)C(=O)N[C@@H](CCc1ccccc1)C(=O)O
31 | 160 nM | > 1000 nM | COc1ccccc1C[C@H](NCP(=O)(O)O)C(=O)N[C@@H](Cc1ccc(-c2ccccc2)cc1)C(=O)O
32 | 22 nM | 165 nM | CC[C@H](C)C(N[C@@H](C)C(=O)O)C(=O)N[C@@H](Cc1ccc(-c2ccccc2)cc1)C(=O)O (some centres undefined)
